Values of other authors in patent publication US20210000980A1, “METHOD AND COMPOSITION FOR THE DETECTION OF ARTHROPODS” (ARKE' S.r.l., priority 2018, published 2021).

System: lice
Conditions: 10% formic acid solution in water

## O=CO [formic acid]
  lice removed: ≤ 94%
